Source: patent US9802928B2 (Merck Sharp & Dohme Corp., priority 2013, dated 2017)

Key:
[1] = biological target: soluble human BACE1 catalytic domain (Homo sapiens (Human), UniProt P56817); assay: BACE1 HTRF FRET Assay; assay type: biochemical; conditions: Ki calculated from IC50 using the Cheng-Prusoff equation; QSY7-APPswe-Eu substrate, pH 5.0
From the text: Na^+-Acetate pH 5.0; 1% Brij-35; Glycerol; Dimethyl Sulfoxide (DMSO); Recombinant human soluble BACE1 catalytic domain (>95% pure); APP Swedish mutant peptide substrate (QSY7-APP^swe-Eu): QSY7-[…]-Europium-amide.
A homogeneous time-resolved FRET assay can be used to determine IC50 values for inhibitors of the soluble human BACE1 catalytic domain. This assay monitors the increase of 620 nm fluorescence that resulted from BACE1 cleavage of an APPswedish APP^swe mutant peptide FRET substrate (QSY7-[…]-Europium-amide). This substrate contains an N-terminal QSY7 moiety that serves as a quencher of the C-terminal Europium fluorophore (620 nm Em). In the absence of enzyme activity, 620 nm fluorescence is low in the assay and increased linearly over 3 hours in the presence of uninhibited BACE1 enzyme Inhibition of BACE1 cleavage of the QSY7-APP^swe-Eu substrate by inhibitors is manifested as a suppression of 620 nm fluorescence.
Varying concentrations of inhibitors at 3× the final desired concentration in a volume of 10 ul are preincubated with purified human BACE1 catalytic domain (3 nM in 10 μl) for 30 minutes at 30° C. in reaction buffer containing 20 mM Na-Acetate pH 5.0, 10% glycerol, 0.1% Brij-35 and 7.5% DSMO. Reactions are initiated by addition of 10 μl of 600 nM QSY7-APP^swe-Eu substrate (200 nM final) to give a final reaction volume of 30 μl in a 384 well Nunc HTRF plate. The reactions are incubated at 30° C. for 1.5 hours. The 620 nm fluorescence is then read on a Rubystar HTRF plate reader (BMG Labtechnologies) using a 50 millisecond delay followed by a 400 millisecond acquisition time window. Inhibitor IC50 values are derived from non-linear regression analysis of concentration response curves. Ki values are then calculated from IC50 values using the Cheng-Prusoff equation using a previously determined […] of 8 μM for the QSY7-APP^swe-Eu substrate at BACE1.

[2] = biological target: purified human autoBACE-2 (Homo sapiens (Human), UniProt Q9Y5Z0); assay: BACE-2 Assay (BACE-HTRF assay); assay type: biochemical; conditions: Ki calculated from IC50 using the Cheng-Prusoff equation; QSY7-EISEVNLDAEFC-Eu-amide substrate, pH 5.0; read-out: BACE2 Ki
Protocol: Inhibitor IC50s at purified human autoBACE-2 are determined in a time-resolved endpoint proteolysis assay that measures hydrolysis of the QSY7-EISEVNLDAEFC-Eu-amide FRET peptide substrate (BACE-HTRF assay). BACE-mediated hydrolysis of this peptide results in an increase in relative fluorescence (RFU) at 620 nm after excitation with 320 nm light. Inhibitor compounds, prepared at 3× the desired final concentration in 1×BACE assay buffer (20 mM sodium acetate pH 5.0, 10% glycerol, 0.1% Brij-35) supplemented with 7.5% DMSO are pre-incubated with an equal volume of autoBACE-2 enzyme diluted in 1×BACE assay buffer (final enzyme concentration 1 nM) in black 384-well NUNC plates for 30 minutes at 30° C. The assay is initiated by addition of an equal volume of the QSY7-EISEVNLDAEFC-Eu-amide substrate (200 nM final concentration, Km=8 μM […] for autoBACE-2) prepared in 1×BACE assay buffer supplemented with 7.5% DMSO and incubated for 90 minutes at 30° C. DMSO is present at 5% final concentration in the assay. Following laser excitation of sample wells at 320 nm, the fluorescence signal at 620 nm is collected for 400 ms following a 50 μs delay on a RUBYstar HTRF plate reader (BMG Labtechnologies). Raw RFU data is normalized to maximum (1.0 nM BACE/DMSO) and minimum (no enzyme/DMSO) RFU values. IC50s are determined by nonlinear regression analysis (sigmoidal dose response, variable slope) of percent inhibition data with minimum and maximum values set to 0 and 100 percent respectively. Similar IC50s are obtained when using raw RFU data. The Ki values are calculated from the IC50 using the Cheng-Prusoff equation.

purified human autoBACE-2, sequence (Q9Y5Z0 63-473 limits assumed): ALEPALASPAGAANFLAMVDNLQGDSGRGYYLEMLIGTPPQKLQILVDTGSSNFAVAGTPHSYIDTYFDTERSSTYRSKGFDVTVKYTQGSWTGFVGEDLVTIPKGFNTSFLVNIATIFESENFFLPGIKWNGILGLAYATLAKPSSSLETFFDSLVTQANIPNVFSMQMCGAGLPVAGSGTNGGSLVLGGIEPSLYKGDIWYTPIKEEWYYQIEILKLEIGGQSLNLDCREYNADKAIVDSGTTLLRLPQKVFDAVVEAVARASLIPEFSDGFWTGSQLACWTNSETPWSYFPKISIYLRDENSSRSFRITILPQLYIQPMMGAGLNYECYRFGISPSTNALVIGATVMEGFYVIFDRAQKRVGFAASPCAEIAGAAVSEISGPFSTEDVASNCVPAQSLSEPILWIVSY
soluble human BACE1 catalytic domain, sequence (P56817 75-416): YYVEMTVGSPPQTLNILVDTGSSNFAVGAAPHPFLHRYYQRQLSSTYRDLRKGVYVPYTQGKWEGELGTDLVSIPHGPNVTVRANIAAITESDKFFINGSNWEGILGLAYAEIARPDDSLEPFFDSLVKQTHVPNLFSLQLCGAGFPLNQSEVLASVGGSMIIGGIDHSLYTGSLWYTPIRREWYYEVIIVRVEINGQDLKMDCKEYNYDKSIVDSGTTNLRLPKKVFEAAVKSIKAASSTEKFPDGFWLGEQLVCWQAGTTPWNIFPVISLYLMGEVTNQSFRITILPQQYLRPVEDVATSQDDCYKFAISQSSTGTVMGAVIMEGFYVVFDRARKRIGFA

Compound	Ki [1] [µM]	Ki [2] [µM]
CN1C(=N)N[C@](C)(c2cc(NC(=O)c3cn4ccsc4n3)ccc2F)C2(CC2)S1(=O)=O [Example 1v, N-{4-fluoro-3-[(8R)-6-imino-5,8-dimethyl-4,4-dioxido-4-thia-5,7-diazaspiro[2.5]oct-8-yl]phenyl}imidazo[2,1-b][1,3]thiazole-6-carboxamide]	0.232	0.063
CN1C(=N)N[C@](C)(c2cc(NC(=O)c3cnc(OCC(F)(F)F)cn3)ccc2F)C2(CC2)S1(=O)=O [Example 1w, N-{4-fluoro-3-[(8R)-6-imino-5,8-dimethyl-4,4-dioxido-4-thia-5,7-diazaspiro[2.5]oct-8-yl]phenyl}-5-(2,2,2-trifluoroethoxy)pyrazine-2-carboxamide]	0.006	0.159
CN1C(=N)N[C@](C)(c2cc(NC(=O)c3ccc(Cl)cn3)ccc2F)C2(CC2)S1(=O)=O [Example 2, 5-chloro-N-{4-fluoro-3-[(8R)-6-imino-5,8-dimethyl-4,4-dioxido-4-thia-5,7-diazaspiro[2.5]oct-8-yl]phenyl}pyridine-2-carboxamide]	0.005	0.002
